Measurements as given in ChEMBL document CHEMBL3611972, “Leishmanicidal, antiproteolytic, and mutagenic evaluation of alkyltriazoles and alkylphosphocholines” (Eur J Med Chem, 2015).

How the values were obtained:
Assay type in all cases: toxicity, organism-based
Salmonella typhimurium [1] = assay: Mutagenicity in Salmonella typhimurium TA102 assessed as mutagenicity index at 616.38 uM/plate incubated for 90 mins at 37 degC in absence of liver S9 fractions by Ames test relative to control; conditions: salmonella enterica subsp. enterica serovar typhimurium, 1.5 h
Salmonella typhimurium [2] = assay: Mutagenicity in Salmonella typhimurium TA100 assessed as mutagenicity index at 616.38 uM/plate incubated for 90 mins at 37 degC in presence of liver S9 fractions by Ames test relative to control; conditions: salmonella enterica subsp. enterica serovar typhimurium, s9, 1.5 h
Salmonella typhimurium [3] = assay: Mutagenicity in Salmonella typhimurium TA100 assessed as mutagenicity index at 1454.55 uM/plate incubated for 90 mins at 37 degC in absence of liver S9 fractions by Ames test relative to control; conditions: salmonella enterica subsp. enterica serovar typhimurium, 1.5 h
Salmonella typhimurium [4] = assay: Mutagenicity in Salmonella typhimurium TA102 assessed as mutagenicity index at 1454.55 uM/plate incubated for 90 mins at 37 degC in absence of liver S9 fractions by Ames test relative to control; conditions: salmonella enterica subsp. enterica serovar typhimurium, 1.5 h
Salmonella typhimurium [5] = assay: Mutagenicity in Salmonella typhimurium TA100 assessed as mutagenicity index at 313.73 uM/plate incubated for 90 mins at 37 degC in presence of liver S9 fractions by Ames test relative to control; conditions: salmonella enterica subsp. enterica serovar typhimurium, s9, 1.5 h
Salmonella typhimurium [6] = assay: Mutagenicity in Salmonella typhimurium TA97a assessed as mutagenicity index at 1185.19 uM/plate incubated for 90 mins at 37 degC in presence of liver S9 fractions by Ames test relative to control; conditions: salmonella enterica subsp. enterica serovar typhimurium, s9, 1.5 h
Salmonella typhimurium [7] = assay: Mutagenicity in Salmonella typhimurium TA97a assessed as mutagenicity index at 1185.19 uM/plate incubated for 90 mins at 37 degC in absence of liver S9 fractions by Ames test relative to control; conditions: salmonella enterica subsp. enterica serovar typhimurium, 1.5 h
Salmonella typhimurium [8] = assay: Mutagenicity in Salmonella typhimurium TA97a assessed as mutagenicity index at 905.66 uM/plate incubated for 90 mins at 37 degC in presence of liver S9 fractions by Ames test relative to control; conditions: salmonella enterica subsp. enterica serovar typhimurium, s9, 1.5 h
Salmonella typhimurium [9] = assay: Mutagenicity in Salmonella typhimurium TA102 assessed as mutagenicity index at 1185.19 uM/plate incubated for 90 mins at 37 degC in absence of liver S9 fractions by Ames test relative to control; conditions: salmonella enterica subsp. enterica serovar typhimurium, 1.5 h
Salmonella typhimurium [10] = assay: Mutagenicity in Salmonella typhimurium TA100 assessed as mutagenicity index at 1185.19 uM/plate incubated for 90 mins at 37 degC in presence of liver S9 fractions by Ames test relative to control; conditions: salmonella enterica subsp. enterica serovar typhimurium, s9, 1.5 h
Salmonella typhimurium [11] = assay: Mutagenicity in Salmonella typhimurium TA98 assessed as mutagenicity index at 313.73 uM/plate incubated for 90 mins at 37 degC in absence of liver S9 fractions by Ames test relative to control; conditions: salmonella enterica subsp. enterica serovar typhimurium, 1.5 h
Salmonella typhimurium [12] = assay: Mutagenicity in Salmonella typhimurium TA98 assessed as mutagenicity index at 1454.55 uM/plate incubated for 90 mins at 37 degC in absence of liver S9 fractions by Ames test relative to control; conditions: salmonella enterica subsp. enterica serovar typhimurium, 1.5 h
Salmonella typhimurium [13] = assay: Mutagenicity in Salmonella typhimurium TA102 assessed as mutagenicity index at 905.66 uM/plate incubated for 90 mins at 37 degC in presence of liver S9 fractions by Ames test relative to control; conditions: salmonella enterica subsp. enterica serovar typhimurium, s9, 1.5 h
Salmonella typhimurium [14] = assay: Mutagenicity in Salmonella typhimurium TA100 assessed as mutagenicity index at 616.38 uM/plate incubated for 90 mins at 37 degC in absence of liver S9 fractions by Ames test relative to control; conditions: salmonella enterica subsp. enterica serovar typhimurium, 1.5 h
Salmonella typhimurium [15] = assay: Mutagenicity in Salmonella typhimurium TA97a assessed as mutagenicity index at 1454.55 uM/plate incubated for 90 mins at 37 degC in absence of liver S9 fractions by Ames test relative to control; conditions: salmonella enterica subsp. enterica serovar typhimurium, 1.5 h
Salmonella typhimurium [16] = assay: Mutagenicity in Salmonella typhimurium TA102 assessed as mutagenicity index at 616.38 uM/plate incubated for 90 mins at 37 degC in presence of liver S9 fractions by Ames test relative to control; conditions: salmonella enterica subsp. enterica serovar typhimurium, s9, 1.5 h
Salmonella typhimurium [17] = assay: Mutagenicity in Salmonella typhimurium TA100 assessed as mutagenicity index at 435.85 uM/plate incubated for 90 mins at 37 degC in presence of liver S9 fractions by Ames test relative to untreated control; conditions: salmonella enterica subsp. enterica serovar typhimurium, s9, 1.5 h
Salmonella typhimurium [18] = assay: Mutagenicity in Salmonella typhimurium TA100 assessed as mutagenicity index at 150.98 uM/plate incubated for 90 mins at 37 degC in absence of liver S9 fractions by Ames test relative to untreated control; conditions: salmonella enterica subsp. enterica serovar typhimurium, 1.5 h
Salmonella typhimurium [19] = assay: Mutagenicity in Salmonella typhimurium TA97a assessed as mutagenicity index at 700.00 uM/plate incubated for 90 mins at 37 degC in absence of liver S9 fractions by Ames test relative to untreated control; conditions: salmonella enterica subsp. enterica serovar typhimurium, 1.5 h
Salmonella typhimurium [20] = assay: Mutagenicity in Salmonella typhimurium TA98 assessed as mutagenicity index at 570.37 uM/plate incubated for 90 mins at 37 degC in absence of liver S9 fractions by Ames test relative to untreated control; conditions: salmonella enterica subsp. enterica serovar typhimurium, 1.5 h
Salmonella typhimurium [21] = assay: Mutagenicity in Salmonella typhimurium TA102 assessed as mutagenicity index at 435.85 uM/plate incubated for 90 mins at 37 degC in absence of liver S9 fractions by Ames test relative to untreated control; conditions: salmonella enterica subsp. enterica serovar typhimurium, 1.5 h
Salmonella typhimurium [22] = assay: Mutagenicity in Salmonella typhimurium TA100 assessed as mutagenicity index at 435.85 uM/plate incubated for 90 mins at 37 degC in absence of liver S9 fractions by Ames test relative to untreated control; conditions: salmonella enterica subsp. enterica serovar typhimurium, 1.5 h
Salmonella typhimurium [23] = assay: Mutagenicity in Salmonella typhimurium TA98 assessed as mutagenicity index at 700.00 uM/plate incubated for 90 mins at 37 degC in absence of liver S9 fractions by Ames test relative to untreated control; conditions: salmonella enterica subsp. enterica serovar typhimurium, 1.5 h
Salmonella typhimurium [24] = assay: Mutagenicity in Salmonella typhimurium TA102 assessed as mutagenicity index at 296.15 uM/plate incubated for 90 mins at 37 degC in absence of liver S9 fractions by Ames test relative to untreated control; conditions: salmonella enterica subsp. enterica serovar typhimurium, 1.5 h
Salmonella typhimurium [25] = assay: Mutagenicity in Salmonella typhimurium TA98 assessed as mutagenicity index at 435.85 uM/plate incubated for 90 mins at 37 degC in absence of liver S9 fractions by Ames test relative to untreated control; conditions: salmonella enterica subsp. enterica serovar typhimurium, 1.5 h
Salmonella typhimurium [26] = assay: Mutagenicity in Salmonella typhimurium TA98 assessed as mutagenicity index at 435.85 uM/plate incubated for 90 mins at 37 degC in presence of liver S9 fractions by Ames test relative to untreated control; conditions: salmonella enterica subsp. enterica serovar typhimurium, s9, 1.5 h

CCOC(=O)c1cn(CCCCCCCCCOS(C)(=O)=O)nn1
Activity_index (Salmonella typhimurium [1]): 1.1
Activity_index (Salmonella typhimurium [2]): 1
Activity_index (Salmonella typhimurium [3]): 1.2
Activity_index (Salmonella typhimurium [4]): 1.1
Activity_index (Salmonella typhimurium [5]): 0.9
Activity_index (Salmonella typhimurium [6]): 0.7
Activity_index (Salmonella typhimurium [7]): 1.3
Activity_index (Salmonella typhimurium [8]): 0.9
Activity_index (Salmonella typhimurium [9]): 1.2
Activity_index (Salmonella typhimurium [10]): 0.9
Activity_index (Salmonella typhimurium [11]): 1.5
Activity_index (Salmonella typhimurium [12]): 1.4
Activity_index (Salmonella typhimurium [13]): 1.3
Activity_index (Salmonella typhimurium [14]): 1.3
Activity_index (Salmonella typhimurium [15]): 1.4
Activity_index (Salmonella typhimurium [16]): 1.7

CS(=O)(=O)OCCCCCCCCCCCCn1cc(CCCO)nn1
Activity_index (Salmonella typhimurium [17]): 0.7
Activity_index (Salmonella typhimurium [18]): 1.1
Activity_index (Salmonella typhimurium [19]): 1.1
Activity_index (Salmonella typhimurium [20]): 1.3
Activity_index (Salmonella typhimurium [21]): 0.9
Activity_index (Salmonella typhimurium [22]): 1.2
Activity_index (Salmonella typhimurium [23]): 1.3
Activity_index (Salmonella typhimurium [24]): 0.9
Activity_index (Salmonella typhimurium [25]): 1.1
Activity_index (Salmonella typhimurium [26]): 1.1
